Results: patent US8686044B2, “Amide derivative, pest control agent containing the amide derivative, and use of the amide derivative” (Mitsui Chemicals Agro, Inc., priority 2008, dated 2014)

Legend:
Format in all cases: in vivo
Laodelphax striatellus = test: Pesticidal test against Laodelphax striatellus (rice seedling spray); conditions: 144 h, concentration 100 ppm, 3-stage larvae, examined after 6 days, 25° C., read-out: pesticidal rate
Procedure: Pesticidal Test against Laodelphax striatellus
2.5 ml of an acetone solution in which a test compound had been prepared at a predetermined concentration was sprayed on rice seedlings, air-dried, and then put into a glass tube having a diameter of 3 cm and a height of 13 cm, having water therein, and 3-stage larvae of Laodelphax striatellus were released and the tube was capped. They were left to stand in a thermostatic chamber at 25° C., and the numbers of the living pests and the dead pests were examined after 6 days. The test was carried out with ten larvae per group in two replicates.

Spodoptera litura = test: Pesticidal test against Spodoptera litura (cabbage leaf dip); conditions: foliar, 144 h, 2-stage larvae, examined after 6 days, 25° C., read-out: pesticidal rate; for pest or weed control at 1 ppm: concentration 1 ppm; for pest or weed control at 10 ppm: concentration 10 ppm
Procedure: (§1) Pesticidal Test against Spodoptera litura A piece of a cabbage leaf was immersed for 30 seconds in a chemical solution in which a test compound had been prepared at a predetermined concentration, and air-dried, and then put into a 7 cm polyethylene cup having a filter paper laid on the bottom thereof, and 2-stage larvae of Spodoptera litura were released. They were left to stand in a thermostatic chamber at 25° C., and the numbers of the living pests and the dead pests were examined after 6 days. The test was carried out with five larvae per group in two replicates. Further, the following compound (A) disclosed in the pamphlet of International Publication WO 2005/073165 was used as a comparative compound.

Plutella xylostella = test: Pesticidal test against Plutella xylostella (cabbage leaf dip); conditions: foliar, 144 h, 2-stage larvae, examined after 6 days, 25° C., read-out: pesticidal rate; for pest or weed control at 1 ppm: concentration 1 ppm; for pest or weed control at 10 ppm: concentration 10 ppm
Procedure: as §1, with “Plutella xylostella” for “Spodoptera litura”, “above” for “following”, “(A)” for “(A) disclosed in the pamphlet of International Publication WO 2005/073165”

CN(C(=O)c1ccccc1)c1cccc(C(=O)Nc2c(Cl)cc(C(F)(C(F)(F)F)C(F)(F)F)cc2Cl)c1F [7-948]
≥ 70%: pest or weed control at 100 ppm (Laodelphax striatellus) | pest or weed control at 1 ppm (Spodoptera litura) | pest or weed control at 1 ppm (Plutella xylostella)

CN(C(=O)c1cccnc1F)c1cccc(C(=O)Nc2c(Br)cc(C(F)(C(F)(F)F)C(F)(F)F)cc2C(F)(F)F)c1 [7-303]
≥ 70%: pest or weed control at 100 ppm (Laodelphax striatellus) | pest or weed control at 1 ppm (Spodoptera litura) | pest or weed control at 1 ppm (Plutella xylostella)

CN(C(=O)c1ccc([N+](=O)[O-])cc1)c1cccc(C(=O)Nc2c(Br)cc(C(F)(C(F)(F)F)C(F)(F)F)cc2C(F)(F)F)c1 [7-286]
≥ 70%: pest or weed control at 100 ppm (Laodelphax striatellus) | pest or weed control at 1 ppm (Spodoptera litura) | pest or weed control at 1 ppm (Plutella xylostella)

CN(C(=O)c1cncnc1)c1cccc(C(=O)Nc2c(I)cc(C(F)(C(F)(F)F)C(F)(F)F)cc2C(F)(F)F)c1 [7-5909]
≥ 70%: pest or weed control at 100 ppm (Laodelphax striatellus) | pest or weed control at 10 ppm (Spodoptera litura) | pest or weed control at 1 ppm (Plutella xylostella)

CN(C(=O)c1cccnc1Cl)c1cccc(C(=O)N(C)c2c(Br)cc(C(F)(C(F)(F)F)C(F)(F)F)cc2C(F)(F)F)c1 [9-306]
≥ 70%: pest or weed control at 100 ppm (Laodelphax striatellus) | pest or weed control at 1 ppm (Spodoptera litura) | pest or weed control at 1 ppm (Plutella xylostella)

O=C(Nc1cccc(C(=O)Nc2c(Br)cc(C(F)(C(F)(F)F)C(F)(F)F)cc2OC(F)(F)F)c1F)c1cccnc1Cl [6-5908, N-(3-(2-bromo-4-(perfluoropropan-2-yl)-6-(trifluoromethoxy)phenylcarbamoyl)-2-fluorophenyl)-2-chloronicotinamide]
≥ 70%: pest or weed control at 100 ppm (Laodelphax striatellus) | pest or weed control at 1 ppm (Spodoptera litura) | pest or weed control at 1 ppm (Plutella xylostella)

CN(C(=O)c1ccc(C#N)cc1)c1cccc(C(=O)Nc2c(I)cc(C(F)(C(F)(F)F)C(F)(F)F)cc2C(F)(F)F)c1 [7-445]
≥ 70%: pest or weed control at 100 ppm (Laodelphax striatellus) | pest or weed control at 1 ppm (Spodoptera litura) | pest or weed control at 1 ppm (Plutella xylostella)

CN(C(=O)c1ccc(Cl)nc1)c1cccc(C(=O)Nc2c(I)cc(C(F)(C(F)(F)F)C(F)(F)F)cc2C(F)(F)F)c1 [7-467]
≥ 70%: pest or weed control at 100 ppm (Laodelphax striatellus) | pest or weed control at 1 ppm (Spodoptera litura) | pest or weed control at 1 ppm (Plutella xylostella)

CN(C(=O)c1cccnc1Cl)c1cccc(C(=O)Nc2c(I)cc(C(F)(C(F)(F)F)C(F)(F)C(F)(F)F)cc2C(F)(F)F)c1F (stereo not drawn) [7-1844]
≥ 70%: pest or weed control at 100 ppm (Laodelphax striatellus) | pest or weed control at 1 ppm (Spodoptera litura) | pest or weed control at 1 ppm (Plutella xylostella)

O=C(Nc1c(Br)cc(C(F)(C(F)(F)F)C(F)(F)C(F)(F)F)cc1Br)c1cccc(NC(=O)c2cccnc2Cl)c1 (stereo not drawn) [6-57]
≥ 70%: pest or weed control at 100 ppm (Laodelphax striatellus) | pest or weed control at 1 ppm (Spodoptera litura) | pest or weed control at 1 ppm (Plutella xylostella)

N#Cc1ccc(C(=O)Nc2cccc(C(=O)Nc3c(I)cc(C(F)(C(F)(F)F)C(F)(F)C(F)(F)F)cc3I)c2)cc1 (stereo not drawn) [6-79, 3-(4-cyanobenzamide)-N-(2,6-diiodo-4-(perfluorobutan-2-yl)phenyl)benzamide]
≥ 70%: pest or weed control at 100 ppm (Laodelphax striatellus) | pest or weed control at 1 ppm (Spodoptera litura) | pest or weed control at 1 ppm (Plutella xylostella)

O=C(Nc1cccc(C(=O)Nc2c(I)cc(C(F)(C(F)(F)F)C(F)(F)C(F)(F)F)cc2I)c1F)c1ccc(Cl)nc1 (stereo not drawn) [6-1381]
≥ 70%: pest or weed control at 100 ppm (Laodelphax striatellus) | pest or weed control at 1 ppm (Spodoptera litura) | pest or weed control at 1 ppm (Plutella xylostella)

CN(C(=O)c1cccnc1Cl)c1cccc(C(=O)Nc2c(Cl)cc(C(F)(C(F)(F)F)C(F)(F)F)cc2Cl)c1F [7-984]
≥ 70%: pest or weed control at 100 ppm (Laodelphax striatellus) | pest or weed control at 1 ppm (Spodoptera litura) | pest or weed control at 1 ppm (Plutella xylostella)

O=C(Nc1cccc(C(=O)Nc2c(Br)cc(C(F)(C(F)(F)F)C(F)(F)F)cc2Br)c1F)c1cccnc1Cl [6-1140, 2-chloro-N-(3-(2,6-dibromo-4-(perfluoropropan-2-yl)phenylcarbamoyl)-2-fluorophenyl)nicotinamide]
≥ 70%: pest or weed control at 100 ppm (Laodelphax striatellus) | pest or weed control at 1 ppm (Spodoptera litura) | pest or weed control at 1 ppm (Plutella xylostella)

O=C(Nc1cccc(C(=O)Nc2c(Br)cc(C(F)(C(F)(F)F)C(F)(F)C(F)(F)F)cc2Br)c1F)c1ccccc1F (stereo not drawn) [6-1183]
≥ 70%: pest or weed control at 100 ppm (Laodelphax striatellus) | pest or weed control at 1 ppm (Spodoptera litura) | pest or weed control at 1 ppm (Plutella xylostella)

CN(C(=O)c1ccc(C#N)cc1)c1cccc(C(=O)Nc2c(Br)cc(C(F)(C(F)(F)F)C(F)(F)C(F)(F)F)cc2C(F)(F)F)c1F (stereo not drawn) [7-1673]
≥ 70%: pest or weed control at 100 ppm (Laodelphax striatellus) | pest or weed control at 1 ppm (Spodoptera litura) | pest or weed control at 1 ppm (Plutella xylostella)

O=C(Nc1c(Cl)cc(C(F)(C(F)(F)F)C(F)(F)F)cc1C(F)(F)F)c1cccc(NC(=O)c2cccnc2Cl)c1 [6-147]
≥ 70%: pest or weed control at 100 ppm (Laodelphax striatellus) | pest or weed control at 1 ppm (Spodoptera litura) | pest or weed control at 1 ppm (Plutella xylostella)

O=C(Nc1c(Br)cc(C(F)(C(F)(F)F)C(F)(F)F)cc1C(F)(F)F)c1cccc(NC(=O)c2cccnc2I)c1 [6-306]
≥ 70%: pest or weed control at 100 ppm (Laodelphax striatellus) | pest or weed control at 1 ppm (Spodoptera litura) | pest or weed control at 1 ppm (Plutella xylostella)

CN(C(=O)c1cccnc1Cl)c1cccc(C(=O)Nc2c(I)cc(C(F)(C(F)(F)F)C(F)(F)C(F)(F)F)cc2I)c1F (stereo not drawn) [7-1374]
≥ 70%: pest or weed control at 100 ppm (Laodelphax striatellus) | pest or weed control at 1 ppm (Spodoptera litura) | pest or weed control at 1 ppm (Plutella xylostella)

CN(C(=O)c1ccccc1)c1cccc(C(=O)Nc2c(Br)cc(C(F)(C(F)(F)F)C(F)(F)C(F)(F)F)cc2Br)c1F (stereo not drawn) [7-1182, N-(2,6-dibromo-4-(perfluorobutan-2-yl)phenyl)-2-fluoro-3-(N-methylbenzamide)benzamide]
≥ 70%: pest or weed control at 100 ppm (Laodelphax striatellus) | pest or weed control at 1 ppm (Spodoptera litura) | pest or weed control at 1 ppm (Plutella xylostella)

CN(C(=O)c1ccc(C#N)cc1)c1cccc(C(=O)Nc2c(Br)cc(C(F)(C(F)(F)F)C(F)(F)F)cc2C(F)(F)F)c1 [7-289]
≥ 70%: pest or weed control at 100 ppm (Laodelphax striatellus) | pest or weed control at 1 ppm (Spodoptera litura) | pest or weed control at 1 ppm (Plutella xylostella)

CN(C(=O)c1cccnc1Cl)c1cccc(C(=O)Nc2c(Br)cc(C(F)(C(F)(F)F)C(F)(F)F)cc2I)c1F [7-5903]
≥ 70%: pest or weed control at 100 ppm (Laodelphax striatellus) | pest or weed control at 1 ppm (Spodoptera litura) | pest or weed control at 1 ppm (Plutella xylostella)

O=C(Nc1cccc(C(=O)Nc2c(Br)cc(C(F)(C(F)(F)F)C(F)(F)F)cc2C(F)(F)F)c1)c1ccc(Cl)nc1 [6-311]
≥ 70%: pest or weed control at 100 ppm (Laodelphax striatellus) | pest or weed control at 1 ppm (Spodoptera litura) | pest or weed control at 10 ppm (Plutella xylostella)

CN(C(=O)c1cccnc1)c1cccc(C(=O)Nc2c(Br)cc(C(F)(C(F)(F)F)C(F)(F)F)cc2C(F)(F)F)c1F [7-1608]
≥ 70%: pest or weed control at 100 ppm (Laodelphax striatellus) | pest or weed control at 1 ppm (Spodoptera litura) | pest or weed control at 1 ppm (Plutella xylostella)

O=C(Nc1cccc(C(=O)Nc2c(Br)cc(C(F)(C(F)(F)F)C(F)(F)F)cc2OC(F)(F)F)c1F)c1ccccc1 [6-5907]
≥ 70%: pest or weed control at 100 ppm (Laodelphax striatellus) | pest or weed control at 1 ppm (Spodoptera litura) | pest or weed control at 1 ppm (Plutella xylostella)

N#Cc1ccc(C(=O)Nc2cccc(C(=O)Nc3c(Br)cc(C(F)(C(F)(F)F)C(F)(F)C(F)(F)F)cc3Br)c2F)cc1 (stereo not drawn) [6-1203]
≥ 70%: pest or weed control at 100 ppm (Laodelphax striatellus) | pest or weed control at 1 ppm (Spodoptera litura) | pest or weed control at 1 ppm (Plutella xylostella)

CN(C(=O)c1ccc(F)cc1)c1cccc(C(=O)Nc2c(Br)cc(C(F)(C(F)(F)F)C(F)(F)C(F)(F)F)cc2Br)c1F (stereo not drawn) [7-1185]
≥ 70%: pest or weed control at 100 ppm (Laodelphax striatellus) | pest or weed control at 1 ppm (Spodoptera litura) | pest or weed control at 1 ppm (Plutella xylostella)

CN(C(=O)c1cccnc1Cl)c1cccc(C(=O)Nc2c(I)cc(C(F)(C(F)(F)F)C(F)(F)F)cc2C(F)(F)F)c1 [7-460]
≥ 70%: pest or weed control at 100 ppm (Laodelphax striatellus) | pest or weed control at 1 ppm (Spodoptera litura) | pest or weed control at 1 ppm (Plutella xylostella)

CN(C(=O)c1cccnc1Cl)c1cccc(C(=O)Nc2c(Br)cc(C(F)(C(F)(F)F)C(F)(F)C(F)(F)F)cc2Br)c1F (stereo not drawn) [7-1218]
≥ 70%: pest or weed control at 100 ppm (Laodelphax striatellus) | pest or weed control at 1 ppm (Spodoptera litura) | pest or weed control at 1 ppm (Plutella xylostella)

O=C(Nc1cccc(C(=O)Nc2c(Br)cc(C(F)(C(F)(F)F)C(F)(F)C(F)(F)F)cc2Br)c1F)c1ccc(Cl)nc1 (stereo not drawn) [6-1225]
≥ 70%: pest or weed control at 100 ppm (Laodelphax striatellus) | pest or weed control at 1 ppm (Spodoptera litura) | pest or weed control at 1 ppm (Plutella xylostella)

O=C(Nc1c(Br)cc(C(F)(F)C(F)(F)F)cc1C(F)(F)F)c1cccc(NC(=O)c2cccnc2Cl)c1 [6-5914]
≥ 70%: pest or weed control at 100 ppm (Laodelphax striatellus) | pest or weed control at 10 ppm (Spodoptera litura) | pest or weed control at 10 ppm (Plutella xylostella)

CN(C(=O)c1cccc(NC(=O)c2ccc(C#N)cc2)c1)c1c(Br)cc(C(F)(C(F)(F)F)C(F)(F)F)cc1C(F)(F)F [8-289, N-(2-bromo-4-(perfluoropropan-2-yl)-6-(trifluoromethyl)phenyl)-3-(4-cyanobenzamide)-N-methylbenzamide]
≥ 70%: pest or weed control at 100 ppm (Laodelphax striatellus) | pest or weed control at 1 ppm (Spodoptera litura) | pest or weed control at 1 ppm (Plutella xylostella)

CN(C(=O)c1ccc(Cl)nc1)c1cccc(C(=O)Nc2c(Br)cc(C(F)(C(F)(F)F)C(F)(F)C(F)(F)F)cc2Br)c1F (stereo not drawn) [7-1225]
≥ 70%: pest or weed control at 100 ppm (Laodelphax striatellus) | pest or weed control at 1 ppm (Spodoptera litura) | pest or weed control at 1 ppm (Plutella xylostella)

CN(C(=O)c1ccc(C#N)cc1)c1cc(C(=O)Nc2c(Br)cc(C(F)(C(F)(F)F)C(F)(F)F)cc2C(F)(F)F)ccc1F [7-3369]
≥ 70%: pest or weed control at 100 ppm (Laodelphax striatellus) | pest or weed control at 1 ppm (Spodoptera litura) | pest or weed control at 1 ppm (Plutella xylostella)
